In patent publication US5270322A, “Imidazo[1,2-a]pyridines, pharmaceutical compositions containing these compounds and processes for preparing them” (Dr. Karl Thomae GmbH, priority 1992, dated 1993):

Molecular target: T1, Angiotensin II-Receptor (Rattus norvegicus, UniProt P25095)
T1 construct: The tissue (rats lung) is homogenised in Tris-buffer; from tissue; host or cells: rat lung homogenate
T1 sequence (P25095 1-359): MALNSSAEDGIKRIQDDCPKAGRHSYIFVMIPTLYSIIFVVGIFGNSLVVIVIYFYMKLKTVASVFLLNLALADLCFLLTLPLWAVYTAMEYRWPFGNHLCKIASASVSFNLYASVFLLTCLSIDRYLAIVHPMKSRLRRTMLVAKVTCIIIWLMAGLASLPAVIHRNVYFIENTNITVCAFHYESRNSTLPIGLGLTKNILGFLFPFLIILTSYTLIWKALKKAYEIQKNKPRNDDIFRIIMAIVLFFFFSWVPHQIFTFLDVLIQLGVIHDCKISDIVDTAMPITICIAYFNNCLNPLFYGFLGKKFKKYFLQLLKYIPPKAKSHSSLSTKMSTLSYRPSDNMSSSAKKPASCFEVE
Assay: Angiotensin II-Receptor Bonding
Type: binding
Settings: rats lung homogenate; 50 pM [125I]-angiotensin II; 60 minutes at 37° C.; pH 7.40
Experimental: Description of Method: Angiotensin II-Receptor Bonding
The tissue (rats lung) is homogenised in Tris-buffer (50 mMol Tris, 150 mMol NaCl, 5 mMol EDTA, pH 7.40) and centrifuged twice for 20 minutes at 20,000×g. The finished pellets are resuspended in incubating buffer [, (50 mMol Tris, 5 mMol MgC12, 0.2% BSA, pH 7.40) 1:75, based on the moist weight of the tissue. Each 0.1 ml of homogenate is incubated for 60 minutes at 37° C. with 50 pM [^125 I]-angiotensin II (NEN, Dreieich, FRG) with increasing concentrations of the test substance in a total volume of 0.25 ml. Incubation is ended by rapid filtration through glass fibre filter mats. The filters are each washed with 4 ml of ice cold buffer (25 mMol Tris, 2.5 mMol MgCl2, 0.1% BSA, pH 7.40). The bound radioactivity is measured using a gamma-counter. The corresponding IC50 value is obtained from the dose-activity curve.

IC50 [nM] | Compound
46 | CCc1cn2c(C(O)c3ccc(-c4ccccc4C(=O)O)cc3)ccc(C)c2n1 (racemic) [Substance A, (R,S)-2-ethyl-8-methyl-5-[α-(2'-carboxybiphenyl-4-yl)-α-hydroxy-methyl]imidazo[1,2-a]pyridine]
230 | CCc1cn2c(C(OC(=O)NC3CCCCC3)c3ccc(-c4ccccc4C(=O)O)cc3)ccc(C)c2n1 (racemic) [Substance C, (R,S)-2-Ethyl-8-methyl-5-[α-(2'-carboxybiphenyl-4-yl)-α-cyclohexylaminocarbonyloxy-methyl]imidazo[1,2-a]pyridine]
420 | CCCc1cn2c(C(O)c3ccc(-c4ccccc4C(=O)O)cc3)ccc(C)c2n1 (racemic) [Substance D, (R,S)-2-n-Propyl-8-methyl-5-[α-(2'-carboxybiphenyl-4-yl)-α-hydroxy-methyl]imidazo[1,2-a]pyridine-hydrate]

Compound | IC50 [nM]
CCc1cn2c(C(OC(C)=O)c3ccc(-c4ccccc4C(=O)O)cc3)ccc(C)c2n1 (racemic) [Substance B, (R,S)-2-ethyl-8-methyl-5-[α-(2'-carboxybiphenyl-4-yl)-α-acetoxy-methyl]imidazo[1,2-a]pyridine] | 30
